ChEMBL document CHEMBL6120947, “Synthesis and Antiosteoporotic Characterization of Diselenyl Maleimides: Discovery of a Potent Agent for the Treatment of Osteoporosis by Targeting RANKL” (J Med Chem, 2024)
The source made the active and inactive calls. No cut-off for these calls is given here.

Columns and labels:
[1] = test system: BMDM; assay: Effect in JNK level in M-CSF/RANKL-induced osteoclast differentiation in C57BL/6J mouse BMDM cells at 1 uM measured upto 60 mins by Western blot analysis; type: functional, cell-based
[2] = test system: BMDM; assay: Inhibition of osteoclastogenesis in M-CSF/RANKL-induced osteoclast differentiation in C57BL/6J mouse BMDM cells assessed as decrease in c-Fos level at 1 uM measured for 5 days by Western blot analysis; type: functional, cell-based; settings: time 5.0 day
[3] = test system: BMDM; assay: Inhibition of osteoclastogenesis in M-CSF/RANKL-induced osteoclast differentiation in C57BL/6J mouse BMDM cells assessed as decrease in NFATc1 level at 1 uM measured for 5 days by Western blot analysis; type: functional, cell-based; settings: time 5.0 day
[4] = Toxicity in OVX-induced osteoporosis C57BL/6 mouse model assessed as adverse event at 10 mg/kg, po administered every other day for 8 weeks; type: organism-based; settings: in vivo, 1344 h
[5] = Toxicity in OVX-induced osteoporosis C57BL/6 mouse model assessed as pathological change in kidney at 10 mg/kg, po administered every other day for 8 weeks by H and E staining based analysis; type: organism-based; settings: in vivo, 1344 h
[6] = test system: BMDM; assay: Inhibition of osteoclastogenesis in M-CSF/RANKL-induced osteoclast differentiation in C57BL/6J mouse BMDM cells assessed as reduction in cathepsin K level measured after 5 days by Western blot analysis; type: functional, cell-based; settings: dose <= 2.0 µM, time 5.0 day

O=C1C([Se]c2ccccc2)=C([Se]c2ccccc2)C(=O)N1Cc1ccccc1
Activity [1]: No effect | inhibition [2]: Active | inhibition [3]: Active | Activity [4]: Non-toxic | Activity [5]: Non-toxic | inhibition [6]: Dose-dependent-effect
